Peptide text beside a SMILES is read from it. * marks the point of attachment. Propyl(2R-PamO,3-PamO) = CCCCCCCCCCCCCCCC(=O)OC[C@H](C*)OC(=O)CCCCCCCCCCCCCCC; Palmitoyl = CCCCCCCCCCCCCCCC(=O)*
What was measured:
[1] = test system: T-cells of donors never exposed to SARS-CoV-2; format: cell-based, human; conditions: IFN-γ ELISPOT, unexposed donors
[2] = test system: T-cells in PBMC of patients recovered from SARS-CoV-2 infection; format: cell-based, human
[3] = test system: peptide vaccine-specific T-cells; format: in vivo, human; conditions: after one injection, preliminary
[4] = cited from earlier work
[5] = XS15 emulsified in Montanide ISA 51 VG
peptide-specific T-cells = assay: Self-vaccination of a healthy volunteer with SARS-CoV-2-derived peptides, XS15 and Montanide; format: in vivo, human
Text: Development of antibody-dependent enhancement (ADE) antibodies has been identified as potential risk for infected patients after vaccination approaches; see Graham B S. Rapid COVID-19 vaccine development. Science. 2020. In contrast to other classical vaccines aiming to induce an antibody-response to prevent viral infections the CoVac-1 vaccine is designed to induce SARS-CoV-2 specific T-cells. […] Therefore, there is compared to other vaccine approaches only minimal risk of induction of ADE antibodies by the CoVac-1 vaccine.
A more current report of self-vaccination of the same individual includes the administration of SARS-CoV-2-derived peptides performed in March 2020. Here, the self-experimenting healthy volunteer used eight SARS-CoV-2-derived peptides: five predicted to bind to HLA class I molecules (CD8 peptides) and three predicted to bind to HLA-DR molecules (CD4 peptides, including two peptides from the CoVac-1 vaccine). […] About 3 weeks after a single vaccination, using a vaccine containing the mentioned synthetic peptides, Montanide and containing 50 μg XS15, strong vaccine-induced CD4^+ T-cell responses against all […] HLA-DR peptides and against the recall CMV epitope could be detected. No T-cell responses against the five predicted SARS-CoV-2 HLA class I peptides could be detected by ex vivo Interferon-γ ELISpot assay. […]

| Compound | PRE cohort frequency [%] [1] [%] | PRE cohort pos/tested [1] | SARS cohort frequency [%] [2] [%] | SARS cohort pos/tested [2] | Induction of T-cell responses against vaccine peptides, % of healthy volunteer (HV) and patients [3] [%] | Granuloma volume at injection site (ultrasound) ([4]; 80 μg XS15, days 17 and 41) | Ex vivo T-cell responses in peripheral blood detectable ([4]; single vaccination) | Persistence of induced immune responses [5] | Persistence of vaccinated peptides in granuloma on vaccination site [5] | antibody induction against vaccine peptide (peptide-specific T-cells) |
| --- | --- | --- | --- | --- | --- | --- | --- | --- | --- | --- |
| ITRFQTLLALHRSYL [SEQ ID NO: 7] | 5 | 1/20 | 55 | 12/22 |  |  |  |  |  |  |
| SKWYIRVGARKSAPL [SEQ ID NO: 10] | 25 | 4/16 | 68 | 15/22 |  |  |  |  |  |  |
| FYVYSRVKNLNSSRV (SARS-CoV-2) [SEQ ID NO: 9, SARS-CoV-2 envelope protein-derived HLA-DR peptide] | 11 | 2/19 | 50 | 11/22 |  |  |  |  |  |  |
| CCCCCCCCCCCCCCCC(=O)N[C@@H](CSC[C@@H](COC(=O)CCCCCCCCCCCCCCC)OC(=O)CCCCCCCCCCCCCCC)C(=O)NCC(=O)N[C@@H](CC(=O)O)C(=O)N1CCC[C@H]1C(=O)N[C@@H](CCCCN)C(=O)N[C@@H](Cc1c[nH]cn1)C(=O)N1CCC[C@H]1C(=O)N[C@@H](CCCCN)C(=O)N[C@@H](CO)C(=O)N[C@@H](Cc1ccccc1)C(=O)O [XS15] (Palmitoyl-C(Propyl(2R-PamO,3-PamO))GDPKHPKSF-OH; C-terminus assumed) |  |  |  |  | 100 | about 8 ml | more than one year | more than 1.5 years | at least 7 weeks |  |
| RWYFYYLGTGPEAGL (SARS-CoV-2) [SEQ ID NO: 2, SARS-CoV-2 nucleocapsid-derived HLA-DR peptide] | 6 | 1/18 | 73 | 16/22 |  |  |  |  |  |  |
| LLLLDRLNQLESKMS (SARS-CoV-2) [SEQ ID NO: 4, SARS-CoV-2 nucleocapsid-derived HLA-DR peptide] | 6 | 1/17 | 64 | 14/22 |  |  |  |  |  |  |
| ASWFTALTQHGKEDL (SARS-CoV-2) [SEQ ID NO: 3, SARS-CoV-2 nucleocapsid-derived HLA-DR peptide] | 6 | 1/18 | 59 | 13/22 |  |  |  |  |  |  |
| CC(C)C[C@H](NC(=O)[C@@H](NC(=O)[C@H](CO)NC(=O)[C@H](Cc1ccc(O)cc1)NC(=O)[C@H](CC(=O)O)NC(=O)[C@H](C)NC(=O)[C@@H](N)C(C)C)C(C)C)C(=O)N[C@@H](Cc1ccc(O)cc1)C(=O)N[C@@H](CC(N)=O)C(=O)N[C@@H](CO)C(=O)N[C@@H](C)C(=O)N[C@@H](CO)C(=O)N[C@@H](Cc1ccccc1)C(=O)N[C@@H](CO)C(=O)N[C@H](C(=O)O)[C@@H](C)O [SEQ ID NO: 6] |  |  |  |  |  |  |  |  |  | no antibody induction was observed |
| ASAFFGMSRIGMEVT (SARS-CoV-2) [SEQ ID NO: 5, SARS-CoV-2 nucleocapsid-derived HLA-DR peptide] | 6 | 1/18 | 52 | 12/23 |  |  |  |  |  |  |
| KDGIIWVATEGALNT (SARS-CoV-2) [SEQ ID NO: 1, SARS-CoV-2 nucleocapsid-derived HLA-DR peptide] | 44 | 8/18 | 91 | 20/22 |  |  |  |  |  |  |

Reference: patent US20230322865A1 (priority 2020, published 2023)
